Data taken from patent publication US20230364065A1, “ANTIBIOTIC COMBINATION THERAPIES” (BIOVERSYS AG, priority 2022, published 2023).
Like-named read-outs stand apart in the source and are kept apart here.

How the values were obtained:
[1] = system: A. baumannii Pop1 and Pop2 strains; experiment: Time kill curves in CAMHB with 0.1 mM PIH; format: cell-based, Acinetobacter baumannii
Procedure: Based on the data of EXAMPLE 1, the bactericidal activity and the resistance development of rifabutin and of fixed rifabutin/polymyxin concentrations was assessed in time-kill curve experiments. […] FIGS. 3 and 4 show kill curve experiments on two different A. baumannii strains (Pop 1 and Pop2) having very different rifabutin MICs.
Based on the data of EXAMPLE 2, the bactericidal activity and the resistance development of rifabutin/polymyxin B was assessed in time kill curve experiments using a lower concentration of rifabutin and additional strains. Concentrations were fixed at 0.03 mg/L for rifabutin (on average, one thirty-second the rifabutin MIC90), and at 0.125 or 0.06 mg/L for polymyxin B (one fourth and one eighth the fCtrough of polymyxin B).
Time-kill kinetics were performed in CAMHB supplemented with 0.1 mM PIH medium. Rifabutin was tested at 0.25 mg/L with or without the specified concentration of a polymyxin agent. Samples were taken at 0, 2, 4, 8 and 24 hours in order to determine the colony forming units (cfu). Bactericidal activity is defined as ≥3-log reduction in cfu compared to the cfu present in the inoculum (0 hours).

[2] = system: A. baumannii clinical isolates; experiment: Susceptibility of panel strains to the polymyxin alone; format: cell-based, Acinetobacter baumannii; conditions: for number of strains with MIC>2 mg/L towards the polymyxin: polymyxin alone; for strains susceptible to the polymyxin at the fixed concentration: polymyxin alone at 0.125 mg/L
Procedure: (§1) The MIC90 (the maximum Minimal Inhibitory Concentration which inhibits growth of 90% of the strains of a test panel) of rifabutin is 2 or 1 mg/L when tested respectively in RPMI/FCS for broth microdilution or MHA/PIH for agar dilution against a panel of 293 carbapenem-resistant Acinetobacter baumannii (CRAB) (Trebosc V, et al. 2020. In vitro activity of rifabutin against 293 contemporary carbapenem-resistant Acinetobacter baumannii clinical isolates and characterization of rifabutin mode of action and resistance mechanisms. J Antimicrob Chemother. 75(12):3552-3562, incorporated herein by reference). […] At these respective polymyxin concentrations, no strains, 3% of the strains, and <5% of the strains would be susceptible to the respective polymyxin. FIG. 1 illustrates the cumulative index and MIC50 and MIC90 of rifabutin in the presence of members of the polymyxin family of antibiotics at sub MIC (sub trough concentrations) showing the synergistic effect discussed above.
(§2) In vitro activity of rifabutin against 293 contemporary carbapenem-resistant Acinetobacter baumannii clinical isolates and characterization of rifabutin mode of action and resistance mechanisms. J Antimicrob Chemother. 75(12):3552-3562, incorporated herein by reference in its entirety). […] FIG. 2 illustrates the MIC distribution of rifabutin in the presence of members of the polymyxin family of antibiotics at sub MIC (sub trough concentrations) showing the synergistic effect discussed above.

[3] = system: A. baumannii Pop1 and Pop2 strains; experiment: Rifabutin MIC of the strains used for time-kill curves; format: cell-based; conditions: Acinetobacter baumannii
[4] = system: carbapenem-resistant Acinetobacter baumannii (CRAB); conditions: RPMI/FCS, broth microdilution, panel of 293 CRAB; cited from earlier work
[5] = system: A. baumannii clinical isolates; experiment: Rifabutin MIC with a fixed polymyxin concentration, broth microdilution in CAMHB/PIH; format: cell-based, Acinetobacter baumannii
Procedure: as §1, §2
The rifabutin MICs in combination with a fixed concentration of the specified polymyxin were determined by broth microdilution method according to the CLSI guideline. The medium used to determine the MICs was cation-adjusted Muller Hinton broth (CAMHB) supplemented with 0.1 mM of pyridoxal isonicotinoyl hydrazone (PIH). […] Accordingly, the MIC values were set at the first lowest rifabutin concentration preventing growth as assessed by visual inspection of the assay plate.

[6] = system: carbapenem-resistant Acinetobacter baumannii (CRAB); conditions: MHA/PIH, cited from earlier work
[7] = Example 2, colistin or polymyxin B alone at 0.125 or 0.03 mg/L, Pop 1 and Pop2 strains

In the case of SPR206 acetate, the “bactericidal activity in time-kill curves” value (shortened to “bactericidal activity”) ([1]; Example 2, SPR206 alone at 0.03 mg/L, Pop 1 and Pop2 strains) is reported as “either poorly bactericidal or allow for regrowth” and the “number of strains with MIC>2 mg/L towards the polymyxin” value (“number of strains” below) [2] is reported as 18 strains.

For polymyxin B sulfate, the “bactericidal activity” value [1, 7] was “either poorly bactericidal or allow for regrowth”, the “bactericidal activity” value ([1]; Example 3, polymyxin B alone at 0.125 or 0.06 mg/L, Pop1 and Pop2 strains) was “either poorly bactericidal or allowed for regrowth” and the “number of strains” value [2] was 40 strains. For the same molecule, the “strains susceptible to the polymyxin at the fixed concentration” value [2] was “no strains”.

In the case of colistin sulfate, the “bactericidal activity” value [1, 7] is reported as “either poorly bactericidal or allow for regrowth”, the “number of strains” value [2] is reported as 45 strains and the “strains susceptible to the polymyxin at the fixed concentration” value [2] is reported as 3%.

For CO[C@H]1/C=C/O[C@@]2(C)Oc3c(C)c(O)c4c(c3C2=O)C2=NC3(CCN(CC(C)C)CC3)NC2=C(NC(=O)/C(C)=C\C=C\[C@H](C)[C@H](O)[C@@H](C)[C@@H](O)[C@@H](C)[C@H](OC(C)=O)[C@@H]1C)C4=O [rifabutin, Rifabutin], the “bactericidal activity” value ([1]; Example 2, rifabutin alone at 0.25 mg/L, Pop 1 and Pop2 strains) was “either poorly bactericidal or allow for regrowth”, the “bactericidal activity” value ([1]; Example 3, rifabutin alone at 0.03 mg/L, Pop1 and Pop2 strains) was “either poorly bactericidal or allowed for regrowth” and the MIC ([3]; A. baumannii Pop 1 strain of FIG. 3) was 0.016 µg/mL. It also gave an MIC ([3]; A. baumannii Pop2 strain of FIG. 4) of 1 µg/mL, an MIC ([3]; ATCC17978, Pop 1 strain ATCC 17978) of 0.008 µg/mL and an MIC ([3]; Pop 1 strain HUMC1) of 0.002 µg/mL. For the same molecule, the MIC ([3]; Pop2 strain LAC-4) was 1 µg/mL, the MIC ([3]; Pop2 strain UNT238-1) was 2 µg/mL and the MIC90 of rifabutin [4] was 2 µg/mL. For the same molecule, the “strains having a rifabutin MIC≤1 mg/L in the presence of a polymyxin” value ([5]; CAMHB/PIH broth microdilution, about one-quarter of the fCtrough of the polymyxin) was 99%, the “MIC90 of rifabutin in the presence of a polymyxin” value ([5]; CAMHB/PIH broth microdilution, with 0.125 mg/L polymyxin B, 0.125 mg/L colistin or 0.03 mg/L SPR206 (about one-quarter of fCtrough)) was 0.06 to 0.25 µg/mL and the “fold lowering of rifabutin MIC90 in the presence of a polymyxin” value ([5]; subinhibitory concentrations of a polymyxin antibiotic) was “up to 32 fold”. For the same molecule, the “strains in population 1 (rifabutin MICs<0.125 mg/L)” value ([6]; 293 CRAB) was 72%, the “strains in population 2 (rifabutin MICs≥0.125 to <16 mg/L)” value ([6]; 293 CRAB) was 27% and the “strains in population 3 (rifabutin MICs≥16 mg/L)” value ([6]; 293 CRAB) was 1%. The MIC90 of rifabutin ([6]; agar dilution, panel of 293 CRAB) was 1 µg/mL.
